Results as given in patent US12329457B2, “Hyperspectral imaging for early detection of Alzheimer's disease” (REGENTS OF THE UNIVERSITY OF MINNESOTA, priority 2011, dated 2025).

How the values were obtained:
[1] = target: T1, Aβ^1-42 aggregates (Homo sapiens, UniProt P05067); experiment: HSI with Spectral Angle Mapper (SAM) mapping and counting of intracellular amyloid aggregates; assay type: cell-based; conditions: HSI imaging coupled with SAM
T1 construct: Aβ1-42, FITC-Aβ1-42 and FITC-scrambled-Aβ1-42 were purchased from American Peptide Company; purchased American Peptide Company (Sunnyvale, CA, USA); host or cells: synthetic peptide added to SH-SY5Y cell cultures
T1 sequence (P05067 672-713): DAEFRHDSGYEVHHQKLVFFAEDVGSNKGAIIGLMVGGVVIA
Description: Cell Culture and Cellular Uptake. The human neuroblastoma cell line, SH-SY-5Y, used in the present study was obtained from American Type Culture Collection (Manassas, VA). The cells were maintained in MEM:F12 (1:1) medium supplemented with 10% FBS, 100 units/mL penicillin and 100 units/mL streptomycin and 1% NEAA (non-essential amino acid). Cells were grown at 37° C. in a humidified atmosphere with 5% CO2/95% air. FITC-Aβ1-42, and FITC-scrambled-Aβ1-42, were added to SHSY5Y cultures for 24 h. […]
(§1) The images were captured at 40× magnification using ENVI software, which is followed by extraction of spectral curves as described in the next section. The camera captured spectral responses from 400-1000 nm with a maximum readout time of 12 frames per second. […]
Spectral Angle Mapping Classification Algorithm Among supervised classification methods, a SAM classification algorithm was selected due to its better performance than other classification algorithms for detection of β-amyloid aggregates in unknown samples. […] The spectral angle parameter value as α=0·1 or 0·2 was used for a SAM classifier where α is defined as the angle between testing spectrum vector a, and reference spectrum vector b and is calculated using the following equation: (Also, see FIG. 14, and Siddiqi et al., Cancer, 114(1), 13-21 (2008).

[2] = target: T2, Aβ^1-42 aggregation (Homo sapiens, UniProt P05067); experiment: HSI spectral signature inhibitor screening in Aβ1-42-treated SH-SY5Y cells; assay type: cell-based; conditions: cells co-incubated with inhibitor and Aβ^1-42; rank guanidine, then guanosine, then urea
T2 construct: Aβ1-42, FITC-Aβ1-42 and FITC-scrambled-Aβ1-42 were purchased from American Peptide Company; purchased American Peptide Company (Sunnyvale, CA, USA); host or cells: synthetic peptide added to SH-SY5Y cell cultures
T2 sequence (P05067 672-713): as above
Description: (§2) Cell Culture and Cellular Uptake. The human neuroblastoma cell line, SH-SY-5Y, used in the present study was obtained from American Type Culture Collection (Manassas, VA). The cells were maintained in MEM:F12 (1:1) medium supplemented with 10% FBS, 100 units/mL penicillin and 100 units/mL streptomycin and 1% NEAA (non-essential amino acid). Cells were grown at 37° C. in a humidified atmosphere with 5% CO2/95% air. FITC-Aβ1-42, and FITC-scrambled-Aβ1-42, were added to SHSY5Y cultures for 24 h. For time-dependence experiments, 250 nM FITC-Aβ1-42 was added to SHSY5Y cells, plated in 4-well Lab-Tek chamber slides (Nunc) and images as well as spectral scans (Cytoviva) were acquired at varying times (0-5 days) after addition of the labeled-Aβ1-42. For dose-dependence experiments, FITC-Aβ1-42 was added at varying concentrations (0-1000 nM) and imaged 24 h thereafter. In some experiments, SH-SY-5Y cells were incubated with FITC-Aβ1-42 for 48 h in the presence and absence of inhibitors or promoters of β-amyloid peptide.
CytoViva hyperspectral imaging System After each treatment, slides were examined utilizing a CytoViva microscope and hyperspectral imaging system (CytoViva-Hyperspectral Imaging System (HSI), Auburn, AL; see the Cytoviva Hyperspectral Imaging System Manual) mounted on an Olympus BX-41 optical microscope. This system employs a darkfield-based illuminator that focuses a highly collimated light at oblique angles on the sample to obtain images with improved contrast and signal-to-noise ratio. […]
as §1
(§3) Acquisition of Spectral Scans from Hyperspectral Image The CytoViva Hyperspectral image analysis software powered by ENVI contains features to aid in the quantification and identification of materials by spectral data analysis. […]

[3] = test system: APP/PS1 mice; experiment: Retinal HSI spectra to follow treatment in APP/PS1 mice; assay type: in vivo, mouse
Description: (b) Isolation and analysis of retina tissue. Eyes were enucleated from wild type and Alzheimer's mice at the desired age. For whole-mount retinas, eyes were fixed in […] of freshly prepared 4% PFA-PBS at room temperature for 45 minutes. This was followed by washing with ice-cold PBS solution (2 mL) at least five times. The anterior eye portion, cornea, was dissected out under surgical microscope. The iris was then removed followed by the sclera, lens and hyaloid vessels. The isolated retinas were then washed with ice-cold PBS and divided into four quadrants by making four radial incisions. The whole-mounts were prepared by transferring the dissected retinas onto a microscope slide and coverslipped with hardset Vectashield mounting medium with the nuclear stain DAPI. The whole-mount retina slides were scanned with Cytoviva microscope and spectral signatures were collected from wavelengths in the 400-1000 nm range as described before.
(§4) Hyperspectral Imaging to follow treatment success in Alzheimer's mice Alzheimer's and wild type mice were treated with a candidate drug, ψ-GSH, three times a week for 12 weeks starting at the age of three to four months. (see More et al., (2012) Restoration of Glyoxalase Enzyme Activity Precludes Cognitive Dysfunction in a Mouse Model of Alzheimer's Disease. ACS Chem. Neurosci., DOI: 10.1021/cn3001679) The study was divided in four groups (10 mice/group). 1. […]

[4] = test system: APP/PS1 mice; experiment: Morris Water maze memory test in APP/PS1 mice; assay type: in vivo, mouse
[5] = test system: APP/PS1 mice; experiment: Immunohistochemistry of brain tissue for Aβ load and plaques; assay type: in vivo, mouse
Description: (a) Isolation and analysis of brain tissue. Brains were removed from wild type and Alzheimer's mice and post fixed in Zamboni's fixative (4% paraformaldehyde and 15% picric acid in 0.25 M sodium phosphate, pH 7.5) for 48 h before being cryopreserved in a 30% (wt/vol) sucrose/0.1 sodium phosphate-buffered saline solution. Frozen sections (10 μm) in OCT were cut on a sliding microtome, brought to room temperature and were coverslipped with hardset Vectashield mounting medium with the nuclear stain DAPI (catalogue #H-1500; Vector Laboratories, Burlingame, CA). The whole-mount brain slides were scanned with Cytoviva microscope and spectral signatures were collected from wavelengths in the 400-1000 nm range as described.
(c) Immunohistochemistry of mouse brain and retina samples. For immunofluorescence studies, brain section slides and retina sample slides were pre-incubated for 1 hour in 5% normal goat serum (NGS) in 1×PBST (1×PBS containing 0.3% Triton X-100) at room temperature. A primary antibody against β-amyloid peptide ((Cell signaling, Cat. #2454) was employed then at a dilution of 1:200 in 1% NGS in 1×PBST. After an overnight incubation at 4° C., the slides were rinsed thrice for 10 min with 1×PBST and then incubated for 2 h in goat anti-rabbit IgG conjugated to Cy3 diluted to 1:1000 in 1% NGS in 1× PBST. The sections were rinsed in PBST thrice for 10 min and in PBS for 5 min. Samples were then dehydrated in ethanol, cleared with methyl salicylate, mounted in DEPEX (Electron Microscopy Science, Poole, UK) and staining of β-amyloid aggregates and plaques was visualized with Cytoviva microscope.
as §4

[6] = test system: SH-SY5Y cells; experiment: HSI spectral signature of cells exposed to Aβ1-42; assay type: cell-based, human
Description: as §2, with “In some experiments, SH-SY-5Y cells were incubated with FITC-Aβ1-42 for 48 h in the presence and absence of inhibitors or promoters of β-amyloid peptide.” left out
as §1, §3

[Zn+2] [Zn^2+]
number of intracellular amyloid aggregates compared to cells treated with Aβ^1-42 alone [1]: 280%

N=C(N)N [guanidine, Guanidine]
number of intracellular amyloid aggregates compared to cells treated with Aβ^1-42 alone [1]: 62% | attenuation of amyloid-induced HSI spectral change [2]: greatest attenuation in HSI spectral change

Nc1nc2c(ncn2[C@@H]2O[C@H](CO)[C@@H](O)[C@H]2O)c(=O)[nH]1 [guanosine]
attenuation of amyloid-induced HSI spectral change [2]: attenuation of amyloid-induced HSI spectral change

NC(N)=O [urea]
attenuation of amyloid-induced HSI spectral change [2]: attenuation of amyloid-induced HSI spectral change

N[C@@H](CNC(=O)N[C@@H](CS)C(=O)NCC(=O)O)C(=O)O [ψ-GSH]
retinal HSI spectra ([3]; APP/PS1 mice treated orally): did not exhibit any differences from those of transgenic mice | retinal HSI spectra ([3]; APP/PS1 mice, ψ-GSH i.p. 12 weeks, after 2 months of treatment onward): tended toward those from normal mice | spatial memory development and escape latencies relative to the saline-treated group ([4]; APP/PS1 mice treated orally): did not reach statistical significance | escape latency ([4]; day 3, ψ-GSH treated mice (WT saline 17.29±2.13 s)): 17.91 ± 4.65 s | escape latency ([4]; day 4, ψ-GSH treated mice (WT saline 12.42±2.18 s)): 14.64 ± 2.61 s | learned behavior during the first week of testing ([4]; i.p.): significant learned behavior inculcation | time in the target quadrant, probe trial ([4]; i.p., untreated APP-PS1 16.39±3.39%, non-transgenic vehicle 36.67±5.30%): 38.43±3.73% | time in the target quadrant, probe trial ([4]; orally treated APP/PS1 mice): 21.76±5.36% | brain Aβ load ([5]; i.p., versus untreated APP/PS1 mice): significantly lower Aβ load | Aβ plaques in brain relative to controls ([5]; orally treated APP/PS1 mice): modest decrease in Aβ plaques | number and sizes of Aβ plaques in brain ([5]; ψ-GSH treated group (i.p.)): drastically reduced

Aβ^1-42: β-amyloid peptide purchased from American Peptide Company; FITC-labelled form used for cell uptake
time at which transmitted light reaches its nadir ([6]; 250 nM peptide, HSI spectra over time): 48 h | HSI spectral change in the 400-1000 nm wavelength region ([6]; SH-SY5Y cells, 0-1000 nM peptide): transmitted light shifts to lower values
